These results are taken from patent US8916702B2 (priority 2012, dated 2014).

One experiment has as its system HCV pseudoparticles (genotype 1a HCV E1 and E2 envelope, H77C isolate). As to the kind of experiment: microbe, parasite or virus in culture. The following applies: Hepatitis C virus, Huh-7, 48 h, HCV pseudoparticle infection of Huh7 cells, luciferase 2 days after infection; average of duplicates. Format: cell-based.
One may read the EC50 as the concentration needed to bring the measured effect to its halfway point. In turn, `Cc1ccc(-c2ccc(NC(=O)C(=O)NCC(C)(C)CNC(=O)c3ccc(Nc4nc(NC5(c6ccc(Cl)cc6)CC5)nc(OCC(F)(F)F)n4)cc3)cc2)cc1` [Compound 1565] displayed an EC50 of 0.13 nM. `CC(C)(CNC(=O)C(=O)Nc1ccc2c(c1)Cc1ccccc1-2)CNC(=O)c1ccc(Nc2nc(NC3(c4ccc(Cl)cc4)CC3)nc(OCC(F)(F)F)n2)cc1` [Compound 1570]: the 50% effective concentration (EC50) amounted to 0.05 nM. Same read-out and setting: the figure for `CC(C)(CNC(=O)C(=O)Nc1ccccc1Cl)CNC(=O)c1ccc(Nc2nc(NC3(c4ccc(Cl)cc4)CC3)nc(OCC(F)(F)F)n2)cc1` [Compound 1571] is 0.05 nM.

Still in this experiment, the particulars now being: Hepatitis C virus, Huh-7, 48 h, read-out: Activity (EC50 class), HCV pseudoparticle infection of Huh7 cells, luciferase 2 days after infection; EC50 expressed as class A/B.
As to `O=C(NCC[C@@H](NC(=O)c1ccc(Nc2nc(NC3(c4ccc(Cl)cc4)CC3)nc(OCC(F)(F)F)n2)cc1)C(=O)O)C(=O)Nc1ccc(-c2ccccc2)cc1` [Compound 1557], the EC50 lay within 0.01 to 10 nM.

`CC(C)(CNC(=O)C(=O)Nc1cc(F)c(F)c(F)c1)CNC(=O)c1ccc(Nc2nc(NC3(c4ccc(Cl)cc4)CC3)nc(OCC(F)(F)F)n2)cc1` [Compound 1558]: the EC50 lay in the range of 0.01 to 10 nM. For `CC(C)(CNC(=O)C(=O)Nc1ccc(Cl)cc1)CNC(=O)c1ccc(Nc2nc(NC3(c4ccc(Cl)cc4)CC3)nc(OCC(F)(F)F)n2)cc1` [Compound 1559], the EC50 was 0.01 to 10 nM. Turning to `CC(C)(CNC(=O)C(=O)Nc1cccc(Cl)c1)CNC(=O)c1ccc(Nc2nc(NC3(c4ccc(Cl)cc4)CC3)nc(OCC(F)(F)F)n2)cc1` [Compound 1561], the EC50 was in the range of 0.01 to 10 nM. The same measure, in the same setting: the figure for `Cc1nc(-c2ccc(NC(=O)C(=O)NCC(C)(C)CNC(=O)c3ccc(Nc4nc(NC5(c6ccc(Cl)cc6)CC5)nc(OCC(F)(F)F)n4)cc3)cc2)no1` [Compound 1563] is 0.01 to 10 nM. On the same count and under the same terms, in the case of `CC(C)(CNC(=O)C(=O)Nc1ccc(-c2ccc(-c3ccccc3)cc2)cc1)CNC(=O)c1ccc(Nc2nc(NC3(c4ccc(Cl)cc4)CC3)nc(OCC(F)(F)F)n2)cc1` [Compound 1564] it was 0.01 to 10 nM; in that of `Cc1ccc(-c2ccc(NC(=O)C(=O)NCC(C)(C)CNC(=O)c3ccc(Nc4nc(NC5(c6ccc(Cl)cc6)CC5)nc(OCC(F)(F)F)n4)cc3)cc2)cc1` [Compound 1565], 0.01 to 10 nM. As for `O=C(NCC1(CNC(=O)c2ccc(Nc3nc(NC4(c5ccc(Cl)cc5)CC4)nc(OCC(F)(F)F)n3)cc2)CC1)C(=O)Nc1ccc(F)cc1` [Compound 1566], the EC50 lay in the range of 0.01 to 10 nM. Still for that read-out and setting: in the case of `CC(C)(CNC(=O)C(=O)Nc1ccc2ncoc2c1)CNC(=O)c1ccc(Nc2nc(NC3(c4ccc(Cl)cc4)CC3)nc(OCC(F)(F)F)n2)cc1` [Compound 1567] it was 0.01 to 10 nM. On the same count and under the same terms, the figure for `CC(C)(CNC(=O)C(=O)Nc1ccc(C(=O)N2CCCCC2)cc1)CNC(=O)c1ccc(Nc2nc(NC3(c4ccc(Cl)cc4)CC3)nc(OCC(F)(F)F)n2)cc1` [Compound 1568] is 0.01 to 10 nM; for `CC(C)(CNC(=O)C(=O)Nc1ccc(-c2ccc(F)cc2)cc1)CNC(=O)c1ccc(Nc2nc(NC3(c4ccc(Cl)cc4)CC3)nc(OCC(F)(F)F)n2)cc1` [Compound 1569] it is 0.01 to 10 nM; for `CC(C)(CNC(=O)C(=O)Nc1ccc2c(c1)Cc1ccccc1-2)CNC(=O)c1ccc(Nc2nc(NC3(c4ccc(Cl)cc4)CC3)nc(OCC(F)(F)F)n2)cc1` [Compound 1570] it is 0.01 to 10 nM. In the case of `CC(C)(CNC(=O)C(=O)Nc1ccccc1Cl)CNC(=O)c1ccc(Nc2nc(NC3(c4ccc(Cl)cc4)CC3)nc(OCC(F)(F)F)n2)cc1` [Compound 1571], the EC50 was in the range of 0.01 to 10 nM. For `CC(C)(CNC(=O)C(=O)Nc1ccccc1-c1ccccc1)CNC(=O)c1ccc(Nc2nc(NC3(c4ccc(Cl)cc4)CC3)nc(OCC(F)(F)F)n2)cc1` [Compound 1572], the 50% effective concentration (EC50) was 0.01 to 10 nM. Still for that read-out and setting: the figure for `CCCc1ccc(NC(=O)C(=O)NCC(C)(C)CNC(=O)c2ccc(Nc3nc(NC4(c5ccc(Cl)cc5)CC4)nc(OCC(F)(F)F)n3)cc2)cc1` [Compound 1573] is 0.01 to 10 nM. Same read-out and setting: in the case of `CC(C)(CNC(=O)C(=O)Nc1cccc(C(=O)N2CCCCC2)c1)CNC(=O)c1ccc(Nc2nc(NC3(c4ccc(Cl)cc4)CC3)nc(OCC(F)(F)F)n2)cc1` [Compound 1574] it was 0.01 to 10 nM; in that of `CC(C)(CNC(=O)C(=O)Nc1ccc(C(C)(C)C)cc1)CNC(=O)c1ccc(Nc2nc(NC3(c4ccc(Cl)cc4)CC3)nc(OCC(F)(F)F)n2)cc1` [Compound 1576], 0.01 to 10 nM. Same read-out and setting: the figure for `CC(C)(CNC(=O)C(=O)Nc1ccc2c(c1)oc1ccccc12)CNC(=O)c1ccc(Nc2nc(NC3(c4ccc(Cl)cc4)CC3)nc(OCC(F)(F)F)n2)cc1` [Compound 1577] is 0.01 to 10 nM; for `CN(C(=O)C(=O)NCC(C)(C)CNC(=O)c1ccc(Nc2nc(NC3(c4ccc(Cl)cc4)CC3)nc(OCC(F)(F)F)n2)cc1)c1cccc(F)c1` [Compound 1578] it is 0.01 to 10 nM.
